Results from patent US6375946B1, “Enhanced activation of natural killer cells using an NK cell activator and a hydrogen peroxide scavenger or inhibitor” (Maxim Pharmaceuticals, Inc., priority 1994, dated 2002).

Columns and labels:
[1] = test system: NK cells (cytotoxicity against K562 target cells); assay: cells; settings: for reversal of inhibition of NK cells induced by H2O2: catalase 20 U/ml, data not shown; for time of addition at which the NK cell suppressive signal is inhibited: histamine 10^−4 M or catalase 20 U/ml added at time points after assay start; for effect on NK-cell-mediated killing of tumor cells in the absence of monocytes: no monocytes, NK cells unactivated or IL-2 activated
Description: Using blood obtained from a healthy human blood donor, we studied the effects of catalase on NK cell-mediated killing of tumor cells. K562 cells, from an NK sensitive erythroleukemic cell line, were used as target cells in all experiments. Washed cells (10×10^6 cells/ml) were incubated with ^51Cr (Amersham) at a concentration of 150 FCi/ml cell suspension for 2-4 hours. After centrifugation and resuspension in cell culture medium, 10^4 cells in 50 FL portions were added to the effector cells in microplate wells.
In the first set of experiments, human NK cells alone (1.5×10^5 cells/well) were added to the K562 target cells. […] The cells were then exposed to catalase (Boehringer-Mannheim) at concentrations of 0 to 100 U/ml. These same conditions were repeated using human NK cells admixed with 30% human peripheral blood monocytes, recovered by centrifugal elutriation, added to the target K562 cells.
After incubation at 37EC for 16 hours, supernatant fluids were collected by a tissue collecting system (Amersham) and assayed for radioactivity in a gamma counter. Maximum ^51Cr release was determined in target cell cultures treated with Triton-X. NK cell cytotoxicity was calculated as cell lysis % according to the following formula: [formula]
To study the relationship between the monocyte-derived inhibitory signal and the respiratory burst activity of monocytes, we added catalase and various other scavengers of reactive oxygen metabolites to NK cells, alone or admixed with monocytes. We then measured the cytotoxicity of the NK cells against NK cell sensitive K562 target cells as described above.
Cell culture medium (control), histamine (10^−4 M), or catalase (20 U/ml), was added to either enriched NK cells alone or a mixture of NK cells and monocytes (1.5×10^5 cells/well). These mixtures were then incubated with K562 target cells in sextuplicate in microplates in a total volume of 200 Fl and assayed for microcytotoxicity.
Culture medium (control) or H2O2 at concentrations between 0-10 FM was added to NK cell enriched lymphocytes for assay of cytotoxicity against ^51Cr K562 target cells as described above.
MPO (100 U/ml) and H2O2 at concentrations between 0-10 FM were added to NK cell enriched lymphocytes for assay of cytotoxicity against ^51Cr K562 target cells as described above.
A mixture of enriched NK cells and monocytes were treated with culture medium (control), histamine (10^−4 M), or catalase (20 U/ml) and assayed for microcytotoxicity against target K562 cells as described above in connection with Example 1. […] The data shown is cell lysis % ±s.e.m. of sextuplicates.

[2] = test system: monocytes; assay: Luminol-enhanced chemiluminescence (respiratory burst) of elutriated monocytes; assay type: cell-based, human
Description: Formylmethionyl-leucyl-phenylalanine was dissolved to 10^−2 M in dimethyl sulfoxide and subsequently diluted in Krebs-Ringer phosphate buffer supplemented with glucose (10 mM), Ca^2+ (1 mM), and Mg^2+ (1.5 mM).
In a second set of experiments, effects of histamine and H2R-interactive compounds on the respiratory burst activity, as measured by the luminol-enhanced CL response of enriched, elutriated monocytes, were studied. Monocytes were treated with culture medium (control), histamine (10^−5 M), sodium azide (10^−5 M), or histamine and sodium azide as described below. Emission of CL was recorded after addition of fMLP at time=0.
To assess whether histamine acted by inhibiting the generation of H2O2 or by reducing the availability of peroxidase, we next studied the effects of histamine in monocytes treated with sodium azide to inhibit endogenous myeloperoxidase (MPO) and with exogenous, azide-insensitive peroxidase (HRP) in excess.
To exclude non-specific effects of ranitidine, we used a ranitidine analog (AH20239AA; […]; Glaxo) in which the thioether of ranitidine is replaced by an ether, thereby strongly reducing its H2R antagonist properties. In these experiments, monocytes were treated with histamine (10^−5 M) together with ranitidine or AH20239AA at final concentrations indicated in FIG. 7. All cells were treated with fMLP at time=0. Peak CL recorded in untreated monocytes (control) was 2.5×10^7 cpm.

[3] = histamine 10^−4 M, cell free
Description: The reaction mixture contained 0.8 ml elutriated monocytes (5×10^6 cells/ml).
(§1) Further, we used an assay system in which lysis of elutriated , ^51Cr -labelled RBC was measured in microplates.

[4] = test system: RBC
Description: as §1

[5] = test system: NK cells; assay: IL-2-induced NK cell proliferation (3H-methyl-thymidine incorporation); assay type: cell-based, human; settings: histamine 10^−4 M or catalase 20 U/ml, IL-2 50 U/ml, 48 hours
Description: During the last 8 hours of incubation, cells were pulsed with ^3H-methyl-thymidine (specific activity […]; New England Nuclear Corp.; 1 FCi/2×10^5 cells). Following incubation, the cells were collected on glass fiber filters with an automatic cell harvester and cell-incorporated ^3H-methyl-thymidine was estimated by liquid scintillography.

[6] = test system: YAC-1 mouse lymphoma cells; assay: NK cell-mediated clearance of 51Cr-labeled YAC-1 lymphoma cells from lungs in vivo; design: species or system Swiss Albino mice; settings: 100 U/kg intravenously, 2 hours, four experiments
Description: FIG. 2 graphically depicts the activation of NK cell-mediated clearance of YAC-1 lymphoma cells in vivo by catalase. Seventy-five thousand YAC-1 cells labeled with ^51Cr were injected intravenously into male or female 4-6-week-old Swiss Albino mice, together with vehicle (control; open bars) or catalase (100 U/kg; filled bars). Two hours after the inoculation of tumor cells, the mice were sacrificed by cervical dislocation. […] Results from 4 separate experiments are shown. Each bar represents the mean “s.e.m. of 3-5 animals.
Seventy-five thousand ^51Cr-labeled, NK cell-sensitive YAC-1 mouse lymphoma cells were injected intravenously into male or female 4 to 6 week old Swiss Albino mice, together with vehicle (control) or 100 U/kg catalase. Two hours after inoculation with the tumor cells, the mice were sacrificed by cervical dislocation. The lungs were removed and placed in test tubes in a gamma-counter, and the radioactivity in the lung tissue was measured. The radioactivity in lung tissue is an inverse measure of NK cell-mediated killing of tumor cells in vivo (see Hanna et al., JNCI 65:801 (1980)), and is expressed as a percent of the ^51Cr that is retained in lungs immediately after inoculation of radiolabeled tumor cells.

[7] = test system: NK cells (cytotoxicity against K562 target cells)
Description: In additional experiments, NK cell enriched lymphocytes were pretreated in petri dishes with culture medium (control), catalase or histamine, in the concentrations indicated below in Table II, in the presence or absence of monocytes. After 1 hour incubation, nonadherent lymphocytes were recovered, washed twice, and assayed for cytotoxicity as described above. We wished to determine whether the NK cell inhibitory signal was reversible by removal of monocytes and removal of monocyte-derived products. […] Data are cell lysis % ±s.e.m. of sextuplicates and are the results of 2 separate experiments.

With `NCCc1c[nH]cn1` [histamine] the “effect on monocyte-induced inhibition of baseline NK cell cytotoxicity” value (“effect on monocyte-induced inhibition” below) [1] was “abrogated”, the “concentration at which histamine abrogates monocyte induced suppression of NK cells” value ([1]; NK cells with monocytes) was “exceeding 10^−7 M” and the “reversal of inhibition of NK cells induced by H2O2” value [1] was “not”. The “effect of histamine on monocyte induced suppression of NK cells in the presence of catalase” value ([1]; catalase present) was “ineffective”, the “time of addition at which the NK cell suppressive signal is inhibited” value [1] was “within the first hour” and the “time to block respiratory burst activity” value ([2]; data not shown) was “within seconds”. The “effect on burst activity of unstimulated monocytes and induction of burst by fMLP” value ([2]; histamine 10^−5 M) was “effectively inhibited”, the “effect on fMLP induced CL response with sodium azide and exogenous HRP in excess” value ([2]; sodium azide 10^−5 M, HRP) was “inhibited” and the “CL recorded with H2O2 and/or MPO or H2O2 and HRP” value [3] was “unchanged”. For the same molecule, the “effect on level of RBC killing induced by H2O2” value ([4]; histamine 10^−4 M) was “did not alter” and the “reversal of monocyte-induced inhibition of IL-2-induced NK cell proliferation” value [5] was “effectively reverse”.

In the case of `CN(C)CCSC(=N)N` [nor-dimaprit], the “effect on the respiratory burst of monocytes (H2R-interactive compounds)” value [2] is reported as “ineffective”.

For `OC[C@@H](O)[C@@H](O)[C@H](O)[C@H](O)CO` [mannitol], the “effect on monocyte-induced inhibition” value [1] was “ineffective”.

In the case of `CNC(=C[N+](=O)[O-])NCCOCc1ccc(CN(C)C)o1` [AH20239AA], the “potency relative to ranitidine in antagonizing effects of histamine on suppression of NK cell function by monocytes (fold less potent)” value [1] is reported as “more than 100 fold” and the “potency relative to ranitidine in antagonizing inhibition of respiratory burst activity by histamine (fold less potent)” value ([2]; histamine 10^−5 M) is reported as “more than 100 fold”.

In the case of superoxide dismutase [SOD], the “effect on monocyte-induced inhibition” value [1] is reported as “did not alter”.

For catalase, the “effect on monocyte-induced inhibition” value [1] was “completely abrogate”, the “concentration at which catalase reverses the monocyte suppressive signal” value ([1]; NK cells with monocytes) was “exceeding 10 U/ml” and the “concentration at which catalase reverses the monocyte suppressive signal” value ([1]; NK cells with monocytes, listed as Catalase) was “exceeding 5 U/ml”. For the same molecule, the “reversal of inhibition of NK cells induced by H2O2” value [1] was “completely reversed”, the “time of addition at which the NK cell suppressive signal is inhibited” value [1] was “within the first hour” and the “effect on NK-cell-mediated killing of tumor cells in the absence of monocytes” value [1] was “does not affect”. The “effect on NK-cell-mediated killing of tumor cells in the absence of monocytes” value ([1]; listed as Catalase) was “had no effect”, the “reversal of monocyte-induced inhibition of IL-2-induced NK cell proliferation” value [5] was “effectively reverse” and the “NK cell-mediated killing of YAC-1 lymphoma cells in vivo (retained lung radioactivity)” value [6] was “augmented”.

With `CN(C)CCCSC(=N)N` [Dimaprit] the “effect on the respiratory burst of monocytes (H2R-interactive compounds)” value [2] was “mimicked the effect of histamine” and the “incubation time until effect on respiratory burst is maximal” value ([2]; data not shown) was 10 to 15 min.

With `NCCS(=O)(=O)O` [taurin] the “effect on monocyte-induced inhibition” value [1] was “ineffective”.

With `CC(=O)N(O)CCCCCNC(=O)CCC(=O)N(O)CCCCCNC(=O)CCC(=O)N(O)CCCCCN` [deferox, deferoxamine] the “effect on monocyte-induced inhibition” value [1] was “ineffective”.

For `OO` [H2O2, hydrogen peroxide], the “effect on cytotoxicity of enriched NK cells” value [1] was “effectively suppressed”, the EC50 ([1]; Homo sapiens, K562, read-out: ED50 of suppression of NK cell cytotoxicity) was roughly 2000 nM and the “inhibition of NK cell cytotoxicity after pretreatment and washing” value [7] was “sufficient to effectively inhibit”. For the same molecule, the “lysis of RBC” value ([4]; H2O2 5×10^−5 M, 10^5 RBC) was “approximately 50%”.

B1: myeloperoxidase (protein, UniProt P05164 165-745, looked up)
Myeloperoxidase: VTCPEQDKYRTITGMCNNRRSPTLGASNRAFVRWLPAEYEDGFSLPYGWTPGVKRNGFPVALARAVSNEIVRFPTDQLTPDQERSLMFMQWGQLLDHDLDFTPEPAARASFVTGVNCETSCVQQPPCFPLKIPPNDPRIKNQADCIPFFRSCPACPGSNITIRNQINALTSFVDASMVYGSEEPLARNLRNMSNQLGLLAVNQRFQDNGRALLPFDNLHDDPCLLTNRSARIPCFLAGDTRSSEMPELTSMHTLLLREHNRLATELKSLNPRWDGERLYQEARKIVGAMVQIITYRDYLPLVLGPTAMRKYLPTYRSYNDSVDPRIANVFTNAFRYGHTLIQPFMFRLDNRYQPMEPNPRVPLSRVFFASWRVVLEGGIDPILRGLMATPAKLNRQNQIAVDEIRERLFEQVMRIGLDLPALNMQRSRDHGLPGYNAWRRFCGLPQPETVGQLGTVLRNLKLARKLMEQYGTPNNIDIWMGGVSEPLKRKGRVGPLLACIIGTQFRKLRDGDRFWWENEGVFSMQQRQALAQISLPRIICDNTGITTVSKNNIFMSNSYPRDFVNCSTLPALNLASWREAS
With B1 the “potentiation of the suppressive effect of H2O2 on NK cells” value ([1]; MPO 100 U/ml with H2O2 0-10 FM) was “did not potentiate” and the “scavenging of H2O2” value ([1]; MPO 100 U/ml with H2O2 0-10 FM) was “slightly but significantly scavenged”.
